Test results from patent US20110098351A1, “Lactone compounds which can be used as antioxidant agents in pharmaceutical, cosmetic or food compositions and their method of preparation” (COMMISSISSARIAT A L'ENERGIE ATOMIQUE, priority 2002, published 2011).

Columns and labels:
[1] = test system: IL-10; assay: IL-10 production by lipopolysaccharide-activated human PBMC, cytometric sandwich ELISA; format: cell-based; conditions: 10^-8 M to 10^-5 M, Salmonella abortus equi lipopolysaccharide 5 μg/ml, 24 hours, FIGS. 4 and 5
Description: (§1) This liposaccharide is an endotoxin located on the outer membrane of Gram-negative bacteria. In particular, it stimulates the production of proinflammatory cytokines by the mononuclear cells (monocytes, microphages) of the infected host.
(§2) This test is carried out in the following manner. […]
(§3) More specifically, the detection of the cytokines present in the samples is measured with the aid of a “sandwich” type cytometric ELISA assay. Microparticles (beads) of polystyrene (of 6 different types, each being labelled with a different quantity of fluorescent dye whose FL-3 emission wavelength is about 650 nm) are coupled to an antibody specific for one of the […] TNFα, IL-2, IL-10. […] The cytokines captured are detected with the aid of a directly performed immunological test which uses 2 antibodies specific for each cytokine, coupled to phycoerythrin which emits at an FL-2 wavelength of about 585 nm (Ab-PE). After washing the excess Ab-PE, the presence of the cytokines is measured by flow cytometry.
(§4) The fluorescence is measured based on the 6 FL-3 fluorescence intensities and based on the FL-2 wavelength. The intensity of the […] fluorescence makes it possible to determine the quantity of each cytokine present in the sample (in comparison with standard curves). […]

[2] = test system: Human thyroid carcinoma K1 cells; assay: Protection of K1 cells against cisplatin, sulphorhodamine B test; format: cell-based; conditions: norbadione 20 μg/ml added two hours before cisplatin 12 to 100 μM, two days, FIG. 7
Description: This test consists in measuring, in the presence of norbadione in the diacid or dipotassium salt form, the rate of survival of cells treated with cisplatin.
Human thyroid carcinoma K1 cells are cultured in flat-bottomed 96-well microtest plates in the presence of a single concentration (20 μg/ml) of norbadione in the diacid or dipotassium salt form. After two hours, a genotoxic agent, cisplatin, is added to the culture medium in increasing concentrations (from 12 to 100 μm). Two days later, the number of cells is determined by means of the sulphorhodamine B (termed SRB) test, which measures the quantity of cellular proteins.
Sulphorhodamine B (termed SRB) is an anionic dye which binds electrostatically to cellular proteins. This test is frequently used for the evaluation of the cytotoxic and cytostatic activities of novel antitumour drugs.
Further information relating to this technique is available in the article by Papazisis et al. “Optimization of the sulforhodamine B colorimetric assay”, J. Immunol. Meth, 208, pages 151-158, 1997 [8].
The results of this test are grouped together in FIG. 7, which represents the fluorescence observed after addition of SRB (expressed as arbitrary fluorescence units) as a function of the cisplatin concentration (in μM).

[3] = test system: TNF-α; assay: TNF-α production by lipopolysaccharide-activated human PBMC, cytometric sandwich ELISA; format: cell-based; conditions: 10^-8 M to 10^-5 M, Salmonella abortus equi lipopolysaccharide 5 μg/ml, 24 hours, FIGS. 4 and 5
Description: as §1, §2, §3, §4

[4] = test system: RDM4 cell cultures (AKR mouse lymphomas); assay: Protection of RDM4 cells subjected to ionizing radiation, Uptiblue test; format: cell-based; conditions: for number of living cells after irradiation (Uptiblue fluorescence, A.F.U.): 0.12 to 20 μg/ml added two hours before X rays 15 MV, 8 Gy, sixth day, FIG. 6
Description: This test consists in measuring, in the presence or in the absence of norbadione in diacid or dipotassium salt form, the rate of survival of cells treated with ionizing radiation, with the aid of selective indicators for certain cellular organelles such as mitochondria.
Samples of norbadione in diacid or dipotassium salt form are added to RDM4 cell cultures (AKR mouse lymphomas) in increasing concentrations (from 0.12 to 20 μg/ml), two hours before irradiation. This is carried out by exposing microtest plates containing the cells to X rays of 15 MV, at 8 Gy, the culture medium being unchanged.
The number of living cells is determined on the sixth day by means of the Uptiblue test (which consists in measuring the micochondrial activity of the cells). The Uptiblue reagent (reazurin, also marketed under the ALAMAR BLUE trade mark) is a coloured oxidation-reduction indicator. The reazurin (blue and nonfluorescent) is reduced to resorufin (pink and fluorescent) by living cells.
Experimentally, the Uptiblue (diluted ¼ in the culture medium) is added to the cells in an amount of 20 μl per 200 μl well. After incubating for 4 hours at 37° C., the fluorescence is measured at a wavelength of 590 nm, after excitation at a wavelength of 530 nm with the aid of a fluorescence microplate reader (Fluorolite 1000, Dynex). The fluorescence intensity is proportional to the number of living cells. It is expressed as “arbitrary fluorescence unit”. This value depends on the setting of the apparatus (in particular the voltage) and the background noise (due to the fluorescence emitted by wells not containing cells, but containing Uptiblue). The latter value is subtracted from the experimental values.
The results of this test are grouped together in FIG. 6, which represents the fluorescence observed which makes it possible to quantify the number of living cells, the said fluorescence being expressed as arbitrary fluorescence units on the y-axis of the graph (A.F.U) as a function of the concentration of norbadione in the diacid or dipotassium salt form, noted [Nor-A] or [Nor-B] (in μg/ml).

[5] = test system: rat aorta rings; assay: Relaxation of rat aorta rings induced by SYN-1 (3-morpholinosydnonimine, NO radicals); conditions: dipotassium salt form, 100 μM; FIG. 9
Description: (§5) The objective of this example is to show the antioxidant activity of norbadione in the dipotassium salt form on rat aorta rings.
During a second series of tests, rat aorta rings are subjected to SYN-1 (3-morpholinosydnonimine), which generates NO radicals, inducing relaxation of the rat aorta rings, and the rate of relaxation of these rings is measured. In the presence of norbadione, the rate of relaxation of the rings is measured under the same conditions as those mentioned above. The results are presented in FIG. 9, which represents the rate of vascular relaxation of the rings R(%) as a function of the Sin−1 concentration [Sin−1] (μM), in the absence of norbadione (curve a) and in the presence of norbadione (100 μM) (curve b).

[6] = test system: thymidine; assay: Thymidine degradation test, chemical oxidant stress (Fenton's reagent), competition ELISA of remaining thymidine; format: biochemical; conditions: dipotassium salt (Nor-B); Fenton's reagent 0.35 mM FeSO4/EDTA, 35 mM H2O2; thymidine 70 μM, antioxidant 20 μM; FIG. 3; compared with conventional antioxidants (1)-(6)
Description: (§6) The evaluation of the antioxidant activity of the dipotassium salt of norbadione was carried out by a screening test in vitro.
(§7) This test is based on the monitoring of the degradation of thymidine subjected to various oxidant stresses in the presence of various antioxidant agents, which are norbadione in dipotassium salt form (called Nor-B in FIGS. 1 to 3) in accordance with the invention, and the following antioxidant agents: quercitin (1), fisetin (2), myricetin (3), catechin (4), 7-hydroxy-4-methyl-8-nitrocoumarin (5), Trolox (6) in FIGS. 1 to 3.
(§8) In the presence of an antioxidant, thymidine is protected more or less effectively according to the nature of the said antioxidant. The efficacy of the antioxidant is quantified by assaying the remaining thymidine (quantified as % on the y-axis of the graph) with the aid of an immunoenzymatic assay of the so-called “competition” ELISA type. This ELISA assay consists in producing competition, for binding to a thymidine-specific monoclonal antibody attached to a solid phase, between the thymidine remaining at the end of test and the thymidine labelled with an enzyme (acetylcholine esterase). After washing, the bound enzyme is quantified by colorimetric detection with the aid of 5,5′-dithiobis(2-nitrobenzoic acid) (termed Ellmann's reagent) and in the presence of […]. […]

[7] = test system: rat aorta rings; assay: Contraction of rat aorta rings induced by pyrogallol (superoxide radicals); conditions: dipotassium salt form, 100 μM; FIG. 8
Description: as §5
During a first series of tests, rat aorta rings are subjected, in a first instance, to pyrogallol, which generates superoxide radicals, these radicals inducing contraction of the rat aorta rings and the rate of contraction of these rings is measured in the absence of norbadione.
In a second instance, the same operations are repeated, under the same conditions as those mentioned above, this time in the presence of norbadione.
The results are grouped together in FIG. 8, which represents the rate of vascular contraction of the rings C(g) as a function of the concentration of pyrrogallol [Pyr] (μM), in the absence of norbadione (curve a) and in the presence of norbadione at the concentration of 100 μM (curve b).

[8] = test system: thymidine; assay: Thymidine degradation test, gamma irradiation (caesium 137), competition ELISA of remaining thymidine; format: biochemical; conditions: dipotassium salt (Nor-B); gamma irradiation 3 h 30 min, 137Cs; thymidine 15 μM, antioxidant 12 μM; FIG. 1; compared with quercetin, fisetin, myricetin, catechin, 7-hydroxy-4-methyl-8-nitrocoumarin, Trolox
Description: as §6, §7, §8

[9] = test system: thymidine; assay: Thymidine degradation test, ultraviolet irradiation at 254 nm with H2O2, competition ELISA of remaining thymidine; format: biochemical; conditions: dipotassium salt (Nor-B); UV 254 nm (1.75 J/cm^2), 5 mM H2O2; thymidine 70 μM, antioxidant 100 μM; FIG. 2; compared with conventional antioxidants (1)-(6)
Description: as §6, §7, §8

Molecule | production of the cytokine IL-10 (percentage response relative to control) [1] | cytotoxicity of cisplatin in the presence of norbadione (SRB test) [2] | production of the cytokine TNF-α (percentage response relative to control) [3] | number of living cells after irradiation (Uptiblue fluorescence, A.F.U.) ([4]; RDM4 cells) | number of living cells after irradiation (Uptiblue fluorescence, A.F.U.) ([4]; RDM4 cells, listed as norbadione disalt form) | relaxation of the aorta rings caused by SYN-1 [5] | antioxidant power (percentage of thymidine remaining after oxidant stress) [6] | contraction of the aorta rings caused by pyrogallol [7] | antioxidant power (percentage of thymidine remaining after oxidant stress) [8] | number of living cells after irradiation (Uptiblue fluorescence) at the highest concentration ([4]; RDM4 cells, X rays 8 Gy, from a norbadione concentration of 20 μg/ml) | effect on the growth and the viability of the RDM4 cells ([4]; without irradiation, even at 20 μg/ml) | antioxidant power (percentage of thymidine remaining after oxidant stress) [9] | number of living cells after irradiation (Uptiblue fluorescence, A.F.U.) ([4]; RDM4 cells, listed as norbadione diacid form)
O=C1O/C(=C(/C(=O)[O-])c2ccc(O)cc2)C(O)=C1c1cc2c3c(c(O)cc(C4=C(O)/C(=C(\C(=O)[O-])c5ccc(O)cc5)OC4=O)c3c1)OC2=O.[K+].[K+] [Nor-B, norbadione] | significant dose-dependent reduction | very markedly attenuated | significant dose-dependent reduction | large increase | protects the cells against ionizing radiation in a significant and dose-dependent manner | – | – | – | – | – | – | – | –
norbadione | – | – | – | – | – | reduced | best antioxidant power | suppressed | best antioxidant power | decreases considerably | without effect | best antioxidant power | –
O=C1O/C(=C(/C(=O)O)c2ccc(O)cc2)C(O)=C1c1cc2c3c(c(O)cc(C4=C(O)/C(=C(\C(=O)O)c5ccc(O)cc5)OC4=O)c3c1)OC2=O [Nor-A, norbadione] | significant dose-dependent reduction | very markedly attenuated | significant dose-dependent reduction | large increase | – | – | – | – | – | – | – | – | protects the cells against ionizing radiation in a significant and dose-dependent manner
